# Reference: PMC9161374 (Science Translational Medicine, 2022)
# pEC50: −log10 of the molar value. Values joined by “and” are separate entries in the source; they are usually repeats but may differ in a detail not shown here. Identical values can stand only once. Like-named read-outs stand apart in the source and are kept apart here.
# Legend:
# SARS-CoV-2 (strain B.1) = assay: SARS-CoV-2 infection in Ad5-hACE2 mice; format: in vivo, Ad5-hACE2 BALB/c mice
# [1] = system: SARS-CoV-2 replicon system (pBAC-SARS-CoV-2-Replicon-Luc); assay: microbe, parasite or virus in culture; format: cell-based; details: Severe acute respiratory syndrome coronavirus 2, HEK-293T, 60 h
# SARS-CoV-2 (B.1) = assay: Anti-SARS-CoV-2 activity in Vero E6 cells (viral yield by qRT-PCR); format: cell-based
# [2] = system: SARS-CoV-2 (Beta, B.1.351); assay: microbe, parasite or virus in culture; format: cell-based; details: for pEC50: read-out: EC50 in Vero E6 cells, SARS-CoV-2 (Beta, B.1.351); for % Inhibition: beta
# [3] = system: SARS-CoV-2 (Delta, B.1.617.2); assay: microbe, parasite or virus in culture; format: cell-based; details: for % Inhibition: delta
# [4] = system: SARS-CoV-2 (B.1) in Huh7 cells; assay: Anti-SARS-CoV-2 activity in Huh7 cells (viral yield by qRT-PCR); format: cell-based; details: B.1, MOI 0.05, 48 h
# [5] = CCK-8 cell viability assay; format: cell-based, African green monkey; details: African green monkey; Vero E6 cells, 48 h, CCK8
# Method: To investigate the effect of drugs on cell viability, Vero E6 cells were seeded in 96-well plates at a density of 20,000 cells per well and were treated with drugs at indicated concentrations (0, 0.01, 0.1, 1, 5, 10, 50, 75, 100, 200 μM) for 48 hours. Cell viability was tested by using Cell Counting Kit-8 (CCK-8, Bimake, B34302). The figures were plotted from cell viability percentage versus the drug concentrations using GraphPad Prism 6 software.
# Fig. S4. Cytotoxicity assay of compounds in Vero E6 cells.
# Vero E6 cells were plated in 96-well plates and treated with increasing concentrations
# of each indicated compound, ranging from 0 to 200 μM, for 48 hours. Cell viability was
# tested using Cell Counting Kit-8 (CCK-8). Data are presented as mean ± SD.
compound,measurement,setting,value
"CC(C)C(=O)OC[C@H]1O[C@@H](n2ccc(NO)nc2=O)[C@H](O)[C@@H]1O [EIDD-2801, molnupiravir, reference compound]","Lung viral titer, Log10 (FFU/g)","SARS-CoV-2 (strain B.1); 500 mg/kg orally once daily, 2 dpi, FFA, individual mice",3.468 Log10 (FFU/g) and 2.623 Log10 (FFU/g) and 3.1 Log10 (FFU/g)
same,viral load and pathological damage of the lung,"SARS-CoV-2 (strain B.1); ATV006 250 mg/kg, EIDD-2801 500 mg/kg, orally once daily",reduce the viral load and pathological damage of the lung
CCCC(=O)OC[C@H]1O[C@@](C#N)(c2ccc3c(N)ncnn23)[C@H](O)[C@@H]1O [ATV009],pEC50,"[1]; read-out: EC50 (Confidence 95%), replicon",6.66
same,EC90,"[1]; read-out: EC90 (Confidence 95%), replicon",313 nM
same,% Inhibition,"SARS-CoV-2 (B.1); 1 μM, replicates, sheet Fig.S3",55.195%
same,% Inhibition,"SARS-CoV-2 (B.1); 2 μM, replicates, sheet Fig.S3",75.409%
same,% Inhibition,"SARS-CoV-2 (B.1); 5 μM, replicates, sheet Fig.S3",88.59%
same,% Inhibition,"SARS-CoV-2 (B.1); 10 μM, replicates, sheet Fig.S3",90.9393%
same,% Inhibition,"SARS-CoV-2 (B.1); B.1, 2 uM, Vero E6, replicates, 2 µM",99.9224%
same,% Inhibition,"SARS-CoV-2 (B.1); B.1, 5 uM, Vero E6, replicates, 5 µM",99.9224%
same,% Inhibition,"SARS-CoV-2 (B.1); B.1, 10 uM, Vero E6, replicates, 10 µM",99.9809%
same,% Inhibition,"SARS-CoV-2 (B.1); B.1, 50 uM, Vero E6, replicates, 50 µM",99.9896%
same,inhibition at 0.1 µM,"SARS-CoV-2 (B.1); Severe acute respiratory syndrome coronavirus 2, Vero C1008, 0.1 μM, replicates, sheet Fig.S3",0%
same,inhibition at 0.5 µM,"SARS-CoV-2 (B.1); Severe acute respiratory syndrome coronavirus 2, Vero C1008, 0.5 μM, replicates, sheet Fig.S3",0%
same,inhibition at 1 µM,"SARS-CoV-2 (B.1); Severe acute respiratory syndrome coronavirus 2, Vero C1008, 1 μM, replicates, sheet Fig.S3",63.5%
same,inhibition at 2 µM,"SARS-CoV-2 (B.1); Severe acute respiratory syndrome coronavirus 2, Vero C1008, 2 μM, replicates, sheet Fig.S3",75.7%
same,inhibition at 5 µM,"SARS-CoV-2 (B.1); Severe acute respiratory syndrome coronavirus 2, Vero C1008, 5 μM, replicates, sheet Fig.S3",90.9%
same,inhibition at 10 µM,"SARS-CoV-2 (B.1); Severe acute respiratory syndrome coronavirus 2, Vero C1008, 10 μM, replicates, sheet Fig.S3",93.2%
same,inhibition at 0.01 µM,"SARS-CoV-2 (B.1); Severe acute respiratory syndrome coronavirus 2, Vero C1008, B.1, 0.01 uM, Vero E6, replicates",0%
same,inhibition at 0.1 µM,"SARS-CoV-2 (B.1); Severe acute respiratory syndrome coronavirus 2, Vero C1008, B.1, 0.1 uM, Vero E6, replicates",0%
same,inhibition at 0.25 µM,"SARS-CoV-2 (B.1); Severe acute respiratory syndrome coronavirus 2, Vero C1008, B.1, 0.25 uM, Vero E6, replicates",0%
same,inhibition at 0.5 µM,"SARS-CoV-2 (B.1); Severe acute respiratory syndrome coronavirus 2, Vero C1008, B.1, 0.5 uM, Vero E6, replicates",0%
same,inhibition at 1 µM,"SARS-CoV-2 (B.1); Severe acute respiratory syndrome coronavirus 2, Vero C1008, B.1, 1 uM, Vero E6, replicates",0%
same,inhibition at 2 µM,"SARS-CoV-2 (B.1); Severe acute respiratory syndrome coronavirus 2, Vero C1008, B.1, 2 uM, Vero E6, replicates",99.8%
same,inhibition at 5 µM,"SARS-CoV-2 (B.1); Severe acute respiratory syndrome coronavirus 2, Vero C1008, B.1, 5 uM, Vero E6, replicates",99.8%
same,inhibition at 10 µM,"SARS-CoV-2 (B.1); Severe acute respiratory syndrome coronavirus 2, Vero C1008, B.1, 10 uM, Vero E6, replicates",99.9%
same,inhibition at 50 µM,"SARS-CoV-2 (B.1); Severe acute respiratory syndrome coronavirus 2, Vero C1008, B.1, 50 uM, Vero E6, replicates",99.9%
same,EC90,"SARS-CoV-2 (B.1); Severe acute respiratory syndrome coronavirus 2, Vero C1008, read-out: EC90 (Confidence 95%)",1530 nM
same,pEC50,"SARS-CoV-2 (B.1); Severe acute respiratory syndrome coronavirus 2, Vero C1008, MOI 0.05, 48 h",5.88
same,pEC50,"[2]; Severe acute respiratory syndrome coronavirus 2, Vero C1008, 48 h",5.86
same,inhibition at 0.01 µM,"[2]; Severe acute respiratory syndrome coronavirus 2, Vero C1008, beta, 0.01 uM, Vero E6, replicates",0%
same,inhibition at 0.1 µM,"[2]; Severe acute respiratory syndrome coronavirus 2, Vero C1008, beta, 0.1 uM, Vero E6, replicates",0%
same,inhibition at 0.25 µM,"[2]; Severe acute respiratory syndrome coronavirus 2, Vero C1008, beta, 0.25 uM, Vero E6, replicates",0%
same,inhibition at 0.5 µM,"[2]; Severe acute respiratory syndrome coronavirus 2, Vero C1008, beta, 0.5 uM, Vero E6, replicates",0%
same,inhibition at 1 µM,"[2]; Severe acute respiratory syndrome coronavirus 2, Vero C1008, beta, 1 uM, Vero E6, replicates",0%
same,inhibition at 2 µM,"[2]; Severe acute respiratory syndrome coronavirus 2, Vero C1008, beta, 2 uM, Vero E6, replicates",97%
same,inhibition at 5 µM,"[2]; Severe acute respiratory syndrome coronavirus 2, Vero C1008, beta, 5 uM, Vero E6, replicates",99.7%
same,inhibition at 10 µM,"[2]; Severe acute respiratory syndrome coronavirus 2, Vero C1008, beta, 10 uM, Vero E6, replicates",99.9%
same,inhibition at 50 µM,"[2]; Severe acute respiratory syndrome coronavirus 2, Vero C1008, beta, 50 uM, Vero E6, replicates",99.9%
same,EC90,"[2]; Severe acute respiratory syndrome coronavirus 2, Vero C1008, read-out: EC90 (Confidence 95%), Vero-E6, Beta B.1.351",1780 nM
same,% Inhibition,"[2]; 2 uM, Vero E6, replicates",97.0202%
same,% Inhibition,"[2]; 5 uM, Vero E6, replicates",99.5977%
same,% Inhibition,"[2]; 10 uM, Vero E6, replicates",99.9341%
same,% Inhibition,"[2]; 50 uM, Vero E6, replicates",99.9498%
same,pEC50,[2],5.83
same,pEC50,"[3]; Severe acute respiratory syndrome coronavirus 2, Vero C1008, 48 h, read-out: EC50 in Vero E6 cells, SARS-CoV-2 (Delta, B.1.617.2)",6.31
same,inhibition at 0.01 µM,"[3]; Severe acute respiratory syndrome coronavirus 2, Vero C1008, delta, 0.01 uM, Vero E6, replicates",0%
same,inhibition at 0.1 µM,"[3]; Severe acute respiratory syndrome coronavirus 2, Vero C1008, delta, 0.1 uM, Vero E6, replicates",0%
same,inhibition at 0.25 µM,"[3]; Severe acute respiratory syndrome coronavirus 2, Vero C1008, delta, 0.25 uM, Vero E6, replicates",0%
same,inhibition at 0.5 µM,"[3]; Severe acute respiratory syndrome coronavirus 2, Vero C1008, delta, 0.5 uM, Vero E6, replicates",57.8%
same,inhibition at 1 µM,"[3]; Severe acute respiratory syndrome coronavirus 2, Vero C1008, delta, 1 uM, Vero E6, replicates",94%
same,inhibition at 2 µM,"[3]; Severe acute respiratory syndrome coronavirus 2, Vero C1008, delta, 2 uM, Vero E6, replicates",95.8%
same,inhibition at 5 µM,"[3]; Severe acute respiratory syndrome coronavirus 2, Vero C1008, delta, 5 uM, Vero E6, replicates",91.8%
same,inhibition at 10 µM,"[3]; Severe acute respiratory syndrome coronavirus 2, Vero C1008, delta, 10 uM, Vero E6, replicates",99.7%
same,inhibition at 50 µM,"[3]; Severe acute respiratory syndrome coronavirus 2, Vero C1008, delta, 50 uM, Vero E6, replicates",99.9%
same,EC90,"[3]; Severe acute respiratory syndrome coronavirus 2, Vero C1008, read-out: EC90 (Confidence 95%), Vero-E6, Delta B.1.617.2",678 nM
same,% Inhibition,"[3]; 0.5 uM, Vero E6, replicates",47.7229%
same,% Inhibition,"[3]; 1 uM, Vero E6, replicates",93.0132%
same,% Inhibition,"[3]; 2 uM, Vero E6, replicates",93.5943%
same,% Inhibition,"[3]; 5 uM, Vero E6, replicates",86.9079%
same,% Inhibition,"[3]; 10 uM, Vero E6, replicates",98.6486%
same,% Inhibition,"[3]; 50 uM, Vero E6, replicates",99.5907%
same,pEC50,"[4]; Severe acute respiratory syndrome coronavirus 2, Huh-7, read-out: EC50 (Confidence 95%) in Huh7 cells",5.99
same,EC90,"[4]; Severe acute respiratory syndrome coronavirus 2, Huh-7, read-out: EC90 (Confidence 95%) in Huh7 cells",1310 nM
same,CC50 at 48 h,[5],> 50000 nM
